Measurements as given in PubChem BioAssay (NCI).
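Cultured in 96-well plates, cells were exposed to test compound for 48 hours across five concentrations. The concentration for 50% growth inhibition is given as GI50. At the TGI there is no net growth.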

What was measured:
Assay in all cases: inhibition of tumour cell growth, NCI panel, 48 h
786-0 renal = system: 786-0 renal
A498 renal = system: A498 renal
A549 NSCLC = system: A549 NSCLC
ACHN renal = system: ACHN renal
BT-549 breast = system: BT-549 breast
CAKI-1 renal = system: CAKI-1 renal
CCRF-CEM leukemia = system: CCRF-CEM leukemia
COLO 205 colon = system: COLO 205 colon
DU-145 prostate = system: DU-145 prostate
EKVX NSCLC = system: EKVX NSCLC
HCC-2998 colon = system: HCC-2998 colon
HCT-116 colon = system: HCT-116 colon
HCT-15 colon = system: HCT-15 colon
HL-60(TB) leukemia = system: HL-60(TB) leukemia
HOP-62 NSCLC = system: HOP-62 NSCLC
HOP-92 NSCLC = system: HOP-92 NSCLC
HS 578T breast = system: HS 578T breast
HT29 colon = system: HT29 colon
IGROV1 ovarian = system: IGROV1 ovarian
K-562 leukemia = system: K-562 leukemia
KM12 colon = system: KM12 colon
LOX IMVI melanoma = system: LOX IMVI melanoma
M14 melanoma = system: M14 melanoma
MALME-3M melanoma = system: MALME-3M melanoma
MCF7 breast = system: MCF7 breast
MDA-MB-231 breast = system: MDA-MB-231 breast
MDA-MB-435 = system: MDA-MB-435
MOLT-4 leukemia = system: MOLT-4 leukemia
NCI-H226 lung = system: NCI-H226 lung
NCI-H23 lung = system: NCI-H23 lung
NCI-H460 lung = system: NCI-H460 lung
NCI-H522 lung = system: NCI-H522 lung
NCI/ADR-RES ovarian = system: NCI/ADR-RES ovarian
OVCAR-3 ovarian = system: OVCAR-3 ovarian
OVCAR-4 ovarian = system: OVCAR-4 ovarian
OVCAR-5 ovarian = system: OVCAR-5 ovarian
OVCAR-8 ovarian = system: OVCAR-8 ovarian
PC-3 prostate = system: PC-3 prostate
RPMI-8226 leukemia = system: RPMI-8226 leukemia
RXF 393 renal = system: RXF 393 renal
SF-268 CNS = system: SF-268 CNS
SF-295 CNS = system: SF-295 CNS
SF-539 CNS = system: SF-539 CNS
SK-MEL-2 melanoma = system: SK-MEL-2 melanoma
SK-MEL-28 melanoma = system: SK-MEL-28 melanoma
SK-MEL-5 melanoma = system: SK-MEL-5 melanoma
SK-OV-3 ovarian = system: SK-OV-3 ovarian
SN12C renal = system: SN12C renal
SNB-19 CNS = system: SNB-19 CNS
SNB-75 CNS = system: SNB-75 CNS
SR leukemia = system: SR leukemia
SW-620 colon = system: SW-620 colon
T-47D breast = system: T-47D breast
TK-10 renal = system: TK-10 renal
U251 CNS = system: U251 CNS
UACC-257 melanoma = system: UACC-257 melanoma
UACC-62 melanoma = system: UACC-62 melanoma
UO-31 renal = system: UO-31 renal

Q: What does the source list for `C[C@@H]1Cc2c([nH]c3ccccc23)[C@@H](c2c(F)cc(/C=C/C(=O)O)cc2F)N1CC(C)(C)F`?
A: GI50 (786-0 renal): 14.2 µM; TGI (786-0 renal): 28.1 µM; GI50 (A498 renal): 8.77 µM; TGI (A498 renal): 23.7 µM; GI50 (A549 NSCLC): 11.6 µM; TGI (A549 NSCLC): 26.6 µM; GI50 (ACHN renal): 12.7 µM; TGI (ACHN renal): 28 µM; GI50 (BT-549 breast): 11.3 µM; TGI (BT-549 breast): 26.3 µM; GI50 (CAKI-1 renal): 18.8 µM; TGI (CAKI-1 renal): 61.8 µM; GI50 (CCRF-CEM leukemia): 12 µM; TGI (CCRF-CEM leukemia): 33.8 µM; GI50 (COLO 205 colon): 16.5 µM; TGI (COLO 205 colon): 39.8 µM; GI50 (DU-145 prostate): 19.1 µM; TGI (DU-145 prostate): > 62.3 µM; GI50 (EKVX NSCLC): 12.7 µM; TGI (EKVX NSCLC): 39.2 µM; GI50 (HCC-2998 colon): 10.4 µM; TGI (HCC-2998 colon): 25.6 µM; GI50 (HCT-116 colon): 12.7 µM; TGI (HCT-116 colon): 26.7 µM; GI50 (HCT-15 colon): 8.14 µM; TGI (HCT-15 colon): 24.3 µM; GI50 (HL-60(TB) leukemia): 15.8 µM; TGI (HL-60(TB) leukemia): 39.4 µM; GI50 (HOP-62 NSCLC): 15.5 µM; TGI (HOP-62 NSCLC): 31.7 µM; GI50 (HOP-92 NSCLC): 15 µM; TGI (HOP-92 NSCLC): 30.8 µM; GI50 (HS 578T breast): 12.8 µM; TGI (HS 578T breast): 45.4 µM; GI50 (HT29 colon): 14.5 µM; TGI (HT29 colon): 31.3 µM; GI50 (IGROV1 ovarian): 16.4 µM; TGI (IGROV1 ovarian): 37.2 µM; GI50 (K-562 leukemia): 13.6 µM; TGI (K-562 leukemia): 46.1 µM; GI50 (KM12 colon): 11 µM; TGI (KM12 colon): 28.7 µM; GI50 (LOX IMVI melanoma): 12.3 µM; TGI (LOX IMVI melanoma): 27.2 µM; GI50 (M14 melanoma): 14 µM; TGI (M14 melanoma): 34.5 µM; GI50 (MALME-3M melanoma): 15.5 µM; TGI (MALME-3M melanoma): 34.3 µM; TGI (MCF7 breast): 25.6 µM; GI50 (MDA-MB-231 breast): 18.4 µM; TGI (MDA-MB-231 breast): 38 µM; GI50 (MDA-MB-435): 14 µM; TGI (MDA-MB-435): 31 µM; GI50 (MOLT-4 leukemia): 11.2 µM; TGI (MOLT-4 leukemia): 34.9 µM; GI50 (NCI-H226 lung): 18.2 µM; TGI (NCI-H226 lung): 45.2 µM; GI50 (NCI-H23 lung): 11.2 µM; TGI (NCI-H23 lung): 33.8 µM; GI50 (NCI-H460 lung): 11.5 µM; TGI (NCI-H460 lung): 27.8 µM; GI50 (NCI-H522 lung): 14 µM; TGI (NCI-H522 lung): 33.6 µM; GI50 (NCI/ADR-RES ovarian): 14.7 µM; TGI (NCI/ADR-RES ovarian): 36.5 µM; GI50 (OVCAR-3 ovarian): 13.8 µM; TGI (OVCAR-3 ovarian): 29.1 µM; GI50 (OVCAR-4 ovarian): 15.2 µM; TGI (OVCAR-4 ovarian): 52.8 µM; GI50 (OVCAR-5 ovarian): 22.2 µM; TGI (OVCAR-5 ovarian): 46.8 µM; GI50 (OVCAR-8 ovarian): 11.9 µM; TGI (OVCAR-8 ovarian): 38.4 µM; GI50 (PC-3 prostate): 10.2 µM; TGI (PC-3 prostate): 27.4 µM; GI50 (RPMI-8226 leukemia): 8.1 µM; TGI (RPMI-8226 leukemia): 37.6 µM; GI50 (RXF 393 renal): 11.7 µM; TGI (RXF 393 renal): 26.2 µM; GI50 (SF-268 CNS): 14.2 µM; TGI (SF-268 CNS): 31.8 µM; GI50 (SF-295 CNS): 8.65 µM; TGI (SF-295 CNS): 22.6 µM; GI50 (SF-539 CNS): 14.5 µM; TGI (SF-539 CNS): 32.4 µM; GI50 (SK-MEL-2 melanoma): 13.8 µM; TGI (SK-MEL-2 melanoma): 32.8 µM; GI50 (SK-MEL-28 melanoma): 13.1 µM; TGI (SK-MEL-28 melanoma): 30.9 µM; GI50 (SK-MEL-5 melanoma): 10.7 µM; TGI (SK-MEL-5 melanoma): 24.4 µM; GI50 (SK-OV-3 ovarian): 18.6 µM; TGI (SK-OV-3 ovarian): 36.7 µM; GI50 (SN12C renal): 11.9 µM; TGI (SN12C renal): 38.3 µM; GI50 (SNB-19 CNS): 13.7 µM; TGI (SNB-19 CNS): 32.3 µM; GI50 (SNB-75 CNS): 12.9 µM; TGI (SNB-75 CNS): 28.6 µM; GI50 (SR leukemia): 15.9 µM; TGI (SR leukemia): 48.4 µM; GI50 (SW-620 colon): 12.5 µM; TGI (SW-620 colon): 29 µM; GI50 (T-47D breast): 0.0916 µM; TGI (T-47D breast): 51.3 µM; GI50 (TK-10 renal): 15.9 µM; TGI (TK-10 renal): 39.4 µM; GI50 (U251 CNS): 10.5 µM; TGI (U251 CNS): 25 µM; GI50 (UACC-257 melanoma): 21.7 µM; TGI (UACC-257 melanoma): 49.7 µM; GI50 (UACC-62 melanoma): 3.9 µM; TGI (UACC-62 melanoma): 17.3 µM; GI50 (UO-31 renal): 8.1 µM; TGI (UO-31 renal): 21.6 µM
